Calls of active or inactive are those of the source. No cut-off for these calls is given here.
Tests used:
[1] = biological target: T1, Nucleosome-remodeling factor subunit BPTF (Homo sapiens, UniProt Q12830); assay: Inhibition of biotinylated-H3K4me2 binding to N-terminal His9 tagged human BPTF isoform 2 PHD (2722 to 2781 residues) expressed in Escherichia coli BL21 Star (DE3) at 2 mM measured after 1 hr by Alphascreen assay relative to control
[2] = biological target: T1, Nucleosome-remodeling factor subunit BPTF; assay: Inhibition of biotinylated-H3K4me2 binding to N-terminal His9 tagged human BPTF isoform 2 PHD (2722 to 2781 residues) expressed in Escherichia coli BL21 Star (DE3) measured after 1 hr by Alphascreen assay
[3] = biological target: T1, Nucleosome-remodeling factor subunit BPTF; assay: Binding affinity to N-terminal His9 tagged human BPTF isoform 2 PHD (2722 to 2781 residues) expressed in Escherichia coli BL21 Star (DE3) assessed as reduction in proton resonance intensity at 100 uM by 1H CPMG NMR assay relative to control; set-up: scale not given: the % may be the effect or the level left
[4] = biological target: Lysine-specific demethylase 5A (Homo sapiens) (UniProt P29375); assay: Binding affinity to N-terminal His-tagged human KDM5A PHD3 (1486 to 1690 residues) expressed in Escherichia coli BL21 Star (DE3) assessed as reduction in proton resonance intensity at 100 uM by 1H CPMG NMR assay relative to control; set-up: scale not given: the % may be the effect or the level left
[5] = biological target: T1, Nucleosome-remodeling factor subunit BPTF; assay: Binding affinity to N-terminal His9 tagged human BPTF isoform 2 PHD (2722 to 2781 residues) expressed in Escherichia coli BL21 Star (DE3) at 400 uM by SPR assay
[6] = biological target: T1, Nucleosome-remodeling factor subunit BPTF; assay: Binding affinity to N-terminal His9 tagged human BPTF isoform 2 PHD (2722 to 2781 residues) expressed in Escherichia coli BL21 Star (DE3) assessed as change in chemical shift perturbations at 1 mM by 1H,15N HSQC NMR spectroscopy

Lysine-specific demethylase 5A (Homo sapiens), sequence (P29375 whole entry, the tested form may be a part, canonical isoform): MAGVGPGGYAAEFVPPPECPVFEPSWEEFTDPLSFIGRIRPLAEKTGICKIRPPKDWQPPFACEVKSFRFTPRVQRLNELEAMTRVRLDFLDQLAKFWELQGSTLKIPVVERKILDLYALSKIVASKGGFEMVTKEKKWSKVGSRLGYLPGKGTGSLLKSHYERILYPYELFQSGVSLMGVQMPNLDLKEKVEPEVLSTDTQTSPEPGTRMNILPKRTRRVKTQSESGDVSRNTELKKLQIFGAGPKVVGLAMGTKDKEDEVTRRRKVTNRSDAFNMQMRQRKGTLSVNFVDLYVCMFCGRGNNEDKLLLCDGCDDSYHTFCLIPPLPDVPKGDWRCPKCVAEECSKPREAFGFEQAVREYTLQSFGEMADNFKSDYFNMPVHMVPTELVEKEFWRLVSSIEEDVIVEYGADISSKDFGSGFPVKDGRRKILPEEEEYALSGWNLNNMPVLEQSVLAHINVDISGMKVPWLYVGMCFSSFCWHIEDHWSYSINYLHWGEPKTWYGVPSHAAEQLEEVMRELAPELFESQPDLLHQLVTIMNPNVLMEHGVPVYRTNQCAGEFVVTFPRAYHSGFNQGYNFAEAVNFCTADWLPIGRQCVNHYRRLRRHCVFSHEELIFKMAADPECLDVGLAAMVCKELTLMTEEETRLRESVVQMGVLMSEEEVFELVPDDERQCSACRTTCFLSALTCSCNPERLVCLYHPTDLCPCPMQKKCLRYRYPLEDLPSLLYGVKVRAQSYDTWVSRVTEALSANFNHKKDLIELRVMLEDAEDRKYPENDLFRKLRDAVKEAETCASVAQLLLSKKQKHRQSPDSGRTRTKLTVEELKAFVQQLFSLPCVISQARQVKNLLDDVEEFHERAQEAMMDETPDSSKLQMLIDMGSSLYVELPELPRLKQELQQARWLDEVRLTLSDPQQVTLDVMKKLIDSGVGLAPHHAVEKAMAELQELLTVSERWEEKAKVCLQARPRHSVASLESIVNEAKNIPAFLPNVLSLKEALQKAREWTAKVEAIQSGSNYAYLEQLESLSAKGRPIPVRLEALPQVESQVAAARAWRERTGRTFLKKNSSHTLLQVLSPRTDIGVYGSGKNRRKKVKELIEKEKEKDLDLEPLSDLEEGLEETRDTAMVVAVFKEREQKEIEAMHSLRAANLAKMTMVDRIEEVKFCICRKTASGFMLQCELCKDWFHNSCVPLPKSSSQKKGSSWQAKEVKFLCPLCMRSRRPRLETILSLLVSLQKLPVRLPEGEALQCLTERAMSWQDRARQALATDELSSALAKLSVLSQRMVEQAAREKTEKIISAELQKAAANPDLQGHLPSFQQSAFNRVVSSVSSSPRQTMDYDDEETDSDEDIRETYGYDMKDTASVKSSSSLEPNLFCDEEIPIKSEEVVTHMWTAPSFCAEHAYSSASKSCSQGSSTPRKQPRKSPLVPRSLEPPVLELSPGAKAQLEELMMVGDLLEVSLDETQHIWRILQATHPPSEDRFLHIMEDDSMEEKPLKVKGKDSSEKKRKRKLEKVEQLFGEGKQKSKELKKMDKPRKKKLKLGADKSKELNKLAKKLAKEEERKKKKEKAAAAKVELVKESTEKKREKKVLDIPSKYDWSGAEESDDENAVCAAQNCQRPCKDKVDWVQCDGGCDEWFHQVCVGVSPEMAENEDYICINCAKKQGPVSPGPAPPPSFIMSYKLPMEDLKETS

Structure (SMILES) | IC50 ([2]; read-out: IC50) | Activity [3] | Activity [4] | Activity [5] | further results
Nc1c2c(nc3c1CCC3)CCC2 | – | – | – | – | inhibition [1]: 60%
Clc1ccc(N2CCNCC2)nn1 | 750 µM | – | – | – | –
Cc1ccc(Nc2ccc(N3CCNCC3)nn2)cc1 | 300 µM | 50% | < 20% | Active | Activity [6]: inactive
Cc1ccc(NC(=O)NCC(C)N2CCCC2)cc1 (centres undefined) | – | 35% | < 20% | – | –
CCS(=O)(=O)N1CCN(c2ccc(Nc3ccc(C)cc3)nn2)CC1 | – | – | – | – | inhibition [1]: 78%
c1ccc(Nc2ccc(N3CCNCC3)nn2)nc1 | 20 µM | – | – | – | –
Nc1c2c(nc3c1CCC3)CCCC2 [IPIDACRINE] | 590 µM | 50% | < 20% | Active | –
Cc1cccc(CSC2=NCCN2)c1 | – | 50% | < 20% | Active | inhibition [1]: 83%
c1ccc2nc(N3CCOCC3)ccc2c1 | – | 35% | < 20% | inactive | –
Cc1ccc(Nc2ccc(N3CCNCC3)nn2)nc1 | 30 µM | – | – | – | –
Cc1ccc(Nc2ccc(Cl)nn2)cc1 | – | – | – | – | IC50 [2]: Not Determined(Insoluble)
Fc1ccc(Nc2ccc(N3CCNCC3)nn2)cc1 | 25 µM | – | – | – | Activity [6]: inactive
c1ccc(N2CC3CNCC3C2)cc1 (centres undefined) | 150 µM | – | – | – | –
N#Cc1c(N)sc2c1CCCC2 | 130 µM | 60% | > 20% | inactive | Activity [6]: Active
CC(=O)N1CCc2c(sc(N)c2C#N)C1 | 380 µM | – | – | – | –
Cn1nc2c(c1CNC(=O)c1ccc3c(c1)OCO3)CCC2 | – | 25% | < 20% | inactive | inhibition [1]: 71%
N#Cc1c(N)sc2c1CCCCC2 | 63 µM | – | – | – | –
CC(=O)N1CCN(c2ccc(Nc3ccc(C)cc3)nn2)CC1 | 1200 µM | – | – | – | –
NCC1CCN(c2cccc(F)c2)C1 (centres undefined) | 380 µM | 65% | < 20% | Active | Activity [6]: Active
NCC1CC(=O)N(c2ccc(F)c(F)c2)C1 (centres undefined) | 220 µM | – | – | – | –
Nc1ccnc2c1CCCC2 | – | – | – | – | inhibition [1]: 70%
COC1CN(c2nc3ccccc3s2)C1 | – | 30% | < 20% | Active | inhibition [1]: 70%
O=C(CC12CC3CC(CC(C3)C1)C2)N1CCCC1 | 500 µM | 25% | > 20% | inactive | –

From ChEMBL document CHEMBL5365551, “Fragment-Based NMR Screening of the BPTF PHD Finger Methyl Lysine Reader Leads to the First Small-Molecule Inhibitors” (ACS Med Chem Lett, 2023)
